According to US11684617B2, “Methods of diagnosing and treating ADHD in biomarker positive subjects” (The Children's Hospital of Philadelphia, priority 2017, dated 2023):
Several values for one entry are separate records, joined by “and”; a condition that tells them apart may be missing. Equal entries are not always repeated.

Legend:
[1] = test system: group I and group II/III mGluRs; settings: in vitro studies (Hirouchi 2000); cited from earlier work
[2] = prior human studies; cited from earlier work
animal models = settings: cited from earlier work
[3] = test system: CNV-positive adolescents with moderately severe ADHD; assay: SAGA Phase 2 study: tolerability/safety, treatment-emergent adverse events (safety population); settings: safety population; NFC-1 n = 47
[4] = test system: CNV-positive adolescents with moderately severe ADHD; settings: in vivo
[5] = test system: CNV-positive adolescents with moderately severe ADHD; assay: SAGA Phase 2 study: ADHD-RS-5 total score change from baseline (LOCF); assay type: in vivo, human; set-up: Response (% reduction in ADHD-RS score at endpoint from baseline): concentration or dose not given beside the values; settings: for Response (change from baseline in ADHD RS-5 total score): Table 19
Description: Subjects received randomized treatment with either NFC-1 or placebo. Subjects had ADHD as defined by the Diagnostic and Statistical Manual of Mental Disorders, 5th edition (DSM-5) and Version 5 of the Attention Deficit Hyperactivity Disorder Rating Scale (ADHD RS-5) >28 at Baseline with or without conventional ADHD therapy.
The study was a multicenter, Phase 2, double-blind, randomized, placebo-controlled, parallel-group, dose-optimization study. The study enrolled adolescents 12-17 yrs (inclusive) with ADHD defined by DSM-5 criteria.
Subjects were CNV positive for a CNVs in at least one of the 273 Tier 1 or Tier 2 glutamatergic network genes of interest as listed in Table 1 or 2. These subjects positive for a CNV may also be termed “biomarker positive.”
(§1) The maximum dose was 400 mg BID or placebo.
Efficacy was assessed by the ADHD RS-5, CGI-I, CGI-S, the Adolescent Sleep Hygiene Scale (ASHS), and the Screen for Childhood Anxiety-related Emotional Disorders (SCARED).
The primary efficacy endpoint was the change from baseline in ADHD-RS-5 total score to end of study (last observation carried forward, LOCF) in Intent-to-Treat (ITT) population. The ITT population consisted of 101 patients randomized to NFC-1 or placebo.

[6] = test system: dementia-related cognitive impairment; settings: cited from earlier work
[7] = test system: CNV-positive adolescents with moderately severe ADHD; assay: SAGA Phase 2 study: treatment response (responder: >=30% ADHD-RS-5 reduction, CGI-I 1 or 2, composite); assay type: in vivo, human; settings: for Responder? (Y/N): Table 19
Protocol: as §1
Treatment response was evaluated by measurement of responders and remission. The definition of a “responder” in this study was a response at endpoint of:
A) ≥30% reduction from Baseline in ADHD-RS-5 Total score; • B) CGI-I score of 1 (very much improved) or 2 (much improved); OR • C) Composite (both A and B)
Throughout, the “Response” columns represent the % reduction in ADHD-RS score at endpoint from baseline. […]

[8] = test system: CNV-positive adolescents with moderately severe ADHD; assay: SAGA Phase 2 study: remission (ADHD-RS-5 <=18, CGI-I 1, composite); assay type: in vivo, human; settings: endpoint; data not shown
Protocol: as §1
The definition of a “remission” in this study was a response at endpoint of:
A) ADHD-RS-5 Total score ≤18; • B) CGI-I score of 1. OR • C) Composite (both A and B)

pediatric ADHD subjects = pediatric ADHD subjects (Akhundian 2001); cited from earlier work
[9] = NFC-1-treated patient with CNV in ADRA2A
[10] = NFC-1-treated patient with CNV in CA8
[11] = NFC-1-treated patient with CNV in GRM5
[12] = NFC-1-treated patient with CNV in SNCA
[13] = study end (LOCF), 8-Gene Subset including CNTN4, NFC-1 BID n = 17, p <0.0001 vs placebo
[14] = study end (LOCF), CNTN4 Subset, NFC-1 BID n = 6, p <0.01 vs placebo
[15] = treatment response at endpoint (ITT, LOCF), NFC-1 BID n = 46, p <0.05 vs placebo

Compound: O=C1CC[C@H](C(=O)N2CCCCC2)N1 [Fasoracetam, (+)-5-oxo-D-prolinepiperidinamide]
- stimulation of mGluRs [1]: can stimulate both group I and group II/III mGluRs
- bioavailable [2]: 79%-97%
- half-life [2]: 5 to 6.5 h

Compound: O=C1CC[C@H](C(=O)N2CCCCC2)N1 [NFC-1, fasoracetam monohydrate]
- effects on learning and memory (animal models): Positive effects
- TEAE: Upper respiratory tract infection, % of subjects [3]: 4%
- subjects in whom dosing with the highest dose (400 mg BID) was achieved ([4]; human, 4 weeks): 91%
- Any TEAE, % of subjects ([4]; human, 6 weeks): 70%
- Discontinuations due to TEAEs, % of subjects ([4]; human, 6 weeks): 6%
- TEAE: Accidental overdose, % of subjects ([4]; human, 6 weeks): 11%
- TEAE: Appetite increased, % of subjects ([4]; human, 6 weeks): 6%
- TEAE: Fatigue, % of subjects ([4]; human, 6 weeks): 15%
- TEAE: Headache, % of subjects ([4]; human, 6 weeks): 9%
- TEAE: Irritability, % of subjects ([4]; human, 6 weeks): 2%
- TEAE: Nasopharyngitis, % of subjects ([4]; human, 6 weeks): 2%
- TEAE: Nausea, % of subjects ([4]; human, 6 weeks): 6%
- TEAE: Weight increased, % of subjects ([4]; human, 6 weeks): 15%
- overall tolerability [4]: generally well-tolerated
- serious TEAEs [4]: No serious TEAEs were reported
- severity of TEAEs [4]: majority of TEAEs were mild-to-moderate
- difference between placebo and NFC-1 in ADHD-RS-5 total score change from Baseline to LOCF endpoint (primary endpoint) ([5]; ITT, overall population, optimized dose 100, 200 or 400 mg BID): not significant
- Response (% reduction in ADHD-RS score at endpoint from baseline) ([5]; Table 16, individual subjects with CNV in CNTN4 in the NFC-1-treated group, monohydrate): −41.46% and −35.9% and −77.42% and −70% and −62.5% and −48.65%
- Response (change from baseline in ADHD RS-5 total score) [5, 9]: −65%
- Response (change from baseline in ADHD RS-5 total score) [5, 10]: −33.3333%
- Response (change from baseline in ADHD RS-5 total score) [5, 11]: −37.5%
- Response (change from baseline in ADHD RS-5 total score) [5, 12]: −76.9231%
- Response (change from baseline in ADHD RS-5 total score) ([5]; NFC-1-treated patients with CNV in GRM8, monohydrate): −48.2759% and −39.0244%
- safety and tolerability ([6]; Phase I-III trials, dementia indications): generally safe and well tolerated
- effects on psychiatric symptoms ([6]; Phase III data, cerebral infarct patients and adult dementia patients with cerebrovascular diseases): beneficial effects
- efficacy in dementia ([6]; Phase III trials): did not show sufficient efficacy
- Responder? (Y/N) [7, 9]: Y (“Responder” indicates a 30% or greater reduction from baseline in ADHD RS-5 total score)
- Responder? (Y/N) [7, 10]: Y (“Responder” indicates a 30% or greater reduction from baseline in ADHD RS-5 total score)
- Responder? (Y/N) [7, 11]: Y (“Responder” indicates a 30% or greater reduction from baseline in ADHD RS-5 total score)
- Responder? (Y/N) [7, 12]: Y (“Responder” indicates a 30% or greater reduction from baseline in ADHD RS-5 total score)
- Responder? (Y/N) ([7]; NFC-1-treated patients with CNV in CNTN4): Y (“Responder” indicates a 30% or greater reduction from baseline in ADHD RS-5 total score)
- Responder? (Y/N) ([7]; NFC-1-treated patients with CNV in GRM8): Y (“Responder” indicates a 30% or greater reduction from baseline in ADHD RS-5 total score)
- ADHD-RS-5 Total Score: ≥30% Reduction from Baseline, % of subjects [7, 13]: 88% (15)
- CGI-I Score 1 or 2, % of subjects [7, 13]: 76% (13)
- Composite response, % of subjects [7, 13]: 76% (13)
- ADHD-RS-5 Total Score: ≥30% Reduction from Baseline, % of subjects ([7]; study end (LOCF), CNTN4 Subset, NFC-1 BID n = 6, p <0.005 vs placebo): 100% (6)
- CGI-I Score 1 or 2, % of subjects [7, 14]: 83% (5)
- Composite response, % of subjects [7, 14]: 83% (5)
- patients with 30% or greater reduction from baseline in ADHD RS-5 total score ([7]; subjects with a CNV in CNTN4 assigned to NFC-1): 6/6
- ADHD RS-5 Total Score: ≥30% Reduction from Baseline, % of subjects ([7]; treatment response at endpoint (ITT, LOCF), NFC-1 BID n = 46, p <0.01 vs placebo): 70% (32)
- CGI-I Score 1 or 2, % of subjects [7, 15]: 57% (26)
- Composite response, % of subjects [7, 15]: 57% (26)
- difference between treatment groups in remission [8]: no significant difference

Compound: NC(=O)CN1CCCC1=O [piracetam]
- effect on ADHD symptoms compared to placebo control (pediatric ADHD subjects): increase ADHD symptoms
